Among the data in PMC12040169 (PLOS Biology, 2025) are viability values, retold here.

Broadly, the viability is a read-out of living cells in per cent, often relative to untreated cells.

This data set in a line: in vitro. The settings on record: human, hela cells, % viability.
With `Cc1nnnn1CC(=O)Nc1nn(C)c2cccc(N3CCOCC3)c12` [CBK307335], the viability at 28.5 h, 10 µM is 97%.

In the case of `CN(C)c1ccc(CN2CC[C@H](c3nc4cccc(C(N)=O)c4[nH]3)C2)cc1` [CBK289414], the viability at 28.5 h, 10 µM was found to be 105%.

For the compound `CC(NCC(=O)N1c2ccccc2NC(=O)CC1C)c1ccc(-c2ccccc2)cc1` (stereo not shown) [CBK295155], the viability at 28.5 h, 10 µM was found to be 84.2%.

Turning to `COc1ccccc1NC(=O)CSCc1nc2ccccc2[nH]1` [CBK268385], the viability at 28.5 h, 10 µM was determined as 105%.

Regarding `COc1cc(C)c(S(=O)(=O)n2c(C)nc3ccccc32)cc1C` [CBK265464], the viability at 28.5 h, 10 µM worked out at 94%.

With `O=c1c2c(nc(SCCc3ccccc3)n1CCc1ccccc1)-c1ccccc1CC21CCCCC1` [CBK262661], the viability at 28.5 h, 10 µM is 86.8%.

In the case of `CS(=O)(=O)c1ccc(CNC(=O)c2ccccc2-n2cccc2)cc1` [CBK149612], the viability at 28.5 h, 10 µM worked out at 94.2%.

In the case of `O=[N+]([O-])c1ccc(/C=N/n2c(S)nnc2COc2ccccc2)cc1` [CBK265240], the viability at 28.5 h, 10 µM was 91.5%.

As for `CN(C)CCOc1ncccc1OCCO` [CBK000655F], the viability at 28.5 h, 10 µM came out at 98.2%.

`Cc1[nH]c2ccccc2c1CCNC(=O)N(Cc1cnn(C)c1)C1CC1` [CBK306661]: the viability at 28.5 h, 10 µM is 89%.

Regarding `CCCCOc1ccc(-c2ccc(C#N)cc2)cc1` [CBK056958], the viability at 28.5 h, 10 µM worked out at 93%.

Consider `c1ccn(CCOc2nccnc2-c2ccsc2)c1` [CBK106772], for which the viability at 28.5 h, 10 µM came out at 94.4%.

Turning to `Cc1nn(C)cc1CN(C)S(=O)(=O)c1cccc([N+](=O)[O-])c1` [CBK265399], the viability at 28.5 h, 10 µM came out at 79.9%.

`Cc1ccc(CN2CCC(CN(C)C(=O)c3cc4sccc4[nH]3)CC2)o1` [CBK307522]: the viability at 28.5 h, 10 µM is 102%.

Regarding `Cc1cc(C[C@@H]2COC[C@H]2NCc2cccc(Cl)c2)on1` [CBK284885], the viability at 28.5 h, 10 µM came out at 89.9%.

Regarding `CN1CCN(C(c2ccccc2)C(O)C(=O)c2c[nH]c3ccccc23)CC1` (stereo not shown) [CBK267823], the viability at 28.5 h, 10 µM came to 103%.

On to `Cc1cc(C(F)(F)F)nc2c(OCCOc3nccnc3N3CCNCC3)cnn12` [CBK024195C], for which the viability at 28.5 h, 10 µM is 96.1%.

Take `O=c1c2c3c(sc2n2c(S)nnc2n1Cc1ccccc1)CN(Cc1ccccc1)CC3` [CBK262973]: the viability at 28.5 h, 10 µM stood at 95%.

Consider `CN(C)S(=O)(=O)c1cc(C(=O)NCCc2c[nH]c3ccccc23)c(Cl)cc1Cl` [CBK265883], for which the viability at 28.5 h, 10 µM came to 87.5%.

Regarding `O=C(CSc1ccc2nnc(-c3ccc(F)cc3)n2n1)N1CCCC1` [CBK287519], the viability at 28.5 h, 10 µM was determined as 85.3%.

Turning to `Cc1nc2nc(N)nn2c(C)c1CCC(=O)NCc1ccccc1F` [CBK305860], the viability at 28.5 h, 10 µM worked out at 77.6%.

With `CCN(CC)c1ccc(/C=N/NC(=O)CC2=NNC(=O)C2)cc1` [CBK020059], the viability at 28.5 h, 10 µM came out at 91.8%.

As for `c1ccc(Nc2nc(-c3ccc(N4CCOCC4)cc3)cn3ccnc23)cc1` [CBK066222], the viability at 28.5 h, 10 µM was determined as 90.4%.

With `CCNC(=O)N1CC2(CCN(CCn3cccc3)CC2)c2ccccc21` [CBK143945], the viability at 28.5 h, 10 µM was 93%.

For the compound `c1cncc(-c2nccnc2N2CCN(c3ccncc3)CC2)c1` [CBK036965], the viability at 28.5 h, 10 µM amounted to 86.4%.

Turning to `Cc1cc(NS(=O)(=O)c2ccc(NC(=S)NC3CCCCC3)cc2)no1` [CBK268157], the viability at 28.5 h, 10 µM was 91.3%.

`O=S(=O)(c1ccc(C(F)(F)F)cc1Cl)N1CCN(Cc2cccc(Br)c2)CC1` [CBK063163]: the viability at 28.5 h, 10 µM was determined as 83.7%.

Take `O=C(c1ccccc1)N1CCN(Cc2cc(=O)n3ccsc3n2)CC1` [CBK306095]: the viability at 28.5 h, 10 µM is 94.4%.

As to `Cc1ccc(C(=O)Nc2nc3ccc4nc(C)sc4c3s2)cc1` [CBK287305], the viability at 28.5 h, 10 µM stood at 91.8%.

With `COC(=O)c1cccc2c1CCCN2Cc1nnc(C2CCC2)o1` [CBK304072], the viability at 28.5 h, 10 µM was determined as 105%.

As to `Cn1ccnc1C1(O)CC2CCC(C1)N2C(=O)Nc1ccc(F)cc1` (stereo not shown) [CBK284051], the viability at 28.5 h, 10 µM worked out at 85.7%.

Regarding `O=C(NC(=S)Nc1ccccc1)c1cncc(Br)c1` [CBK092040], the viability at 28.5 h, 10 µM turned out to be 91.2%.

`O=C(C1CC1)N1CCC(n2nc(-c3cccs3)ccc2=O)CC1` [CBK284213]: the viability at 28.5 h, 10 µM worked out at 94.7%.

With `O=C(Nc1ccc2c(c1)oc1ccccc12)C1CCCO1` (stereo not shown) [CBK270168], the viability at 28.5 h, 10 µM turned out to be 81.9%.

With `O=C(O)C1CC(=O)N(c2ccc(Br)cc2)C1` (stereo not shown) [CBK286998], the viability at 28.5 h, 10 µM amounted to 87.7%.

In the case of `COc1ncc(-c2cncc(NCCO)n2)c(OC)n1` [CBK037939], the viability at 28.5 h, 10 µM came out at 106%.

For the compound `COC(=O)c1c(NC(=S)NCc2ccc(S(N)(=O)=O)cc2)sc2c1CCC2` [CBK266926], the viability at 28.5 h, 10 µM is 88.5%.

With `CCC#CC(=O)Nc1ccc(N2CCNCC2)nc1` [CBK004746T], the viability at 28.5 h, 10 µM amounted to 101%.

For `O=C(OCc1ccccc1)Sc1nnc(-c2ccc([N+](=O)[O-])cc2)o1` [CBK264504], the viability at 28.5 h, 10 µM came to 91.3%.

Regarding `CC(=O)Nc1ccc(OC(=O)CSc2nc(C)cc(-c3ccccc3)n2)cc1` [CBK268754], the viability at 28.5 h, 10 µM worked out at 94.7%.

Take `COc1ccc2c(c1)CCN=C2C[C@H]1CN(C(=O)C2CC2)CC[C@H]1CC(=O)O` [CBK289154]: the viability at 28.5 h, 10 µM amounted to 108%.

`COc1ccc(CSc2nnc(SCc3ccc(C(=O)O)cc3)s2)cc1` [CBK300477]: the viability at 28.5 h, 10 µM came out at 104%.

Consider `CCOC(=O)C1(Cc2ccccc2-c2ccncc2)CCNCC1` [CBK282297], for which the viability at 28.5 h, 10 µM came to 88.8%.

For the compound `CC(=O)N[C@H]1CC[C@]2(C)CCC([C@H](C)C(=O)NCCN3CCOCC3)[C@H](O)[C@H]2[C@@H]1C` (stereo partly shown) [CBK289434], the viability at 28.5 h, 10 µM was 114%.

Regarding `CC1=NN(C(=O)c2ccc(Cl)cc2)C(C)(C)C1` [CBK058904], the viability at 28.5 h, 10 µM is 111%.

For the compound `O=C(NC1(C(F)(F)F)NC(=O)N(CCc2ccccc2)C1=O)c1ccco1` (stereo not shown) [CBK267482], the viability at 28.5 h, 10 µM was 89.2%.

As for `O=C(O)c1cc(NS(=O)(=O)c2ccc(N3CCCCC3)c([N+](=O)[O-])c2)cc(C(=O)O)c1` [CBK263876], the viability at 28.5 h, 10 µM turned out to be 101%.

For `Cc1ccc(-c2nccnc2OCc2ccccn2)c(C)c1` [CBK106979], the viability at 28.5 h, 10 µM was 90.7%.

As for `COc1cccc(CC(=O)N(CCC#N)Cc2ccco2)c1` [CBK304859], the viability at 28.5 h, 10 µM was determined as 92.5%.

On to `Cc1nn(C)c(C)c1NC(=O)COc1ccccc1C#N` [CBK305850], for which the viability at 28.5 h, 10 µM worked out at 95%.

Regarding `O=C1CCCN1CCOc1nccnc1-c1ccccc1Cl` [CBK106999], the viability at 28.5 h, 10 µM worked out at 100%.

In the case of `Clc1ccc(COc2nccnc2OCc2cccnc2)cc1Cl` [CBK161597], the viability at 28.5 h, 10 µM turned out to be 85%.

As to `Cc1ccc(Oc2c([N+](=O)[O-])ncn2C)c(Br)c1` [CBK002819], the viability at 28.5 h, 10 µM came to 99.2%.

As to `Oc1ccccc1-c1cc(-c2ccccc2)c2c(ccc3ncccc32)n1` [CBK261276], the viability at 28.5 h, 10 µM is 91.9%.

Turning to `CCNc1nc(-c2ccc(SCC)cc2)cn2ccnc12` [CBK066489], the viability at 28.5 h, 10 µM came to 114%.

As to `O=C(NCc1ccncc1)Nc1ccc([N+](=O)[O-])cc1` [CBK264319], the viability at 28.5 h, 10 µM amounted to 110%.

For the compound `COc1ccc([C@@]23CC[C@@H](NC(=O)c4ccc(C(F)(F)F)cc4F)C[C@@H]2N(C)CC3)cc1OC` [CBK073976T], the viability at 28.5 h, 10 µM stood at 108%.

On to `O=C(COc1ccccc1Cl)Nc1nnc[nH]1` [CBK287946], for which the viability at 28.5 h, 10 µM is 80.1%.
